# Measured values as given in ChEMBL document CHEMBL3822371, “Rapid Discovery and Structure-Activity Relationships of Pyrazolopyrimidines That Potently Suppress Breast Cancer Cell Growth via SRC Kinase Inhibition with Exceptional Selectivity over ABL Kinase” (J Med Chem, 2016).
# Active and inactive are the calls of the source. The calls are words filed in the database; no cut-off is given here.
# Legend:
# [1] = test system: MDA-MB-231; assay: cells; conditions: Homo sapiens, MDA-MB-231, 120 h
# [2] = target: Tyrosine-protein kinase Yes (Homo sapiens, UniProt P07947); assay: Inhibition of human YES using poly[Glu,Tyr]4:1 as substrate in presence of [gamma-33P] ATP
# [3] = target: Platelet-derived growth factor receptor alpha (Homo sapiens, UniProt P16234); assay: Inhibition of human PDGFRalpha using poly[Glu,Tyr]4:1 as substrate in presence of [gamma-33P]ATP
# [4] = target: T1, Proto-oncogene tyrosine-protein kinase Src (Homo sapiens, UniProt P12931); assay: biochemical; assay type: cell-based
# [5] = target: Tyrosine-protein kinase ABL1 (Homo sapiens, UniProt P00519)
# [6] = test system: MCF7; assay: cells; conditions: Homo sapiens, MCF7, 120 h
# [7] = species on record: Danio rerio; assay: Cardiotoxicity in wild-type zebrafish embryos at >10 uM treated for 4 hrs measured after 48 hrs by fluorescent microscopy; assay type: organism-based; conditions: in vivo
# [8] = species on record: Danio rerio; assay: Toxicity in wild-type zebrafish embryos assessed as mortality at >10 uM treated for 4 hrs measured after 48 hrs by fluorescent microscopy; assay type: organism-based; conditions: in vivo
# [9] = Solubility of the compound in water at pH 7; assay type: physicochemical
# [10] = Solubility of the compound in water at pH 2.6; assay type: physicochemical
# [11] = test system: MDA-MB-231; assay: Increase in total SRC in human MDA-MB-231 cells preincubated for 1.5 hrs followed by serum stimulation for 1 hr by Western blot analysis; assay type: cell-based; conditions: mda-mb-231, 1 h
# [12] = species on record: Danio rerio; assay: Cardiotoxicity in wild-type zebrafish embryos assessed as heart enlargement at 1 to 10 uM treated for 4 hrs measured after 48 hrs by fluorescent microscopy; assay type: toxicity, organism-based; conditions: in vivo
# [13] = Half life in nude mouse at 10 mg/kg, […] via oral gavage; assay type: ADME, organism-based; conditions: in vivo
# [14] = target: Mast/stem cell growth factor receptor Kit (Homo sapiens, UniProt P10721); assay: Inhibition of human KIT using poly[Glu,Tyr]4:1 as substrate in presence of [gamma-33P]ATP
# [15] = test system: MCF7; assay: Antiproliferative activity against human MCF7 cells assessed as blockage of cell division at […] after 48 to 120 hrs by microscopy based time-lapse imaging assay; assay type: functional
# [16] = target: Tyrosine-protein kinase Fyn (Homo sapiens, UniProt P06241); assay: Inhibition of human FYN using poly[Glu,Tyr]4:1 as substrate in presence of [gamma-33P]ATP
# [17] = target: Serine/threonine-protein kinase mTOR (Homo sapiens, UniProt P42345); assay: Inhibition of human mTOR using poly[Glu,Tyr]4:1 as substrate in presence of [gamma-33P]ATP
# [18] = target: Proto-oncogene tyrosine-protein kinase receptor Ret (Homo sapiens, UniProt P07949); assay: Inhibition of human RET using poly[Glu,Tyr]4:1 as substrate in presence of [gamma-33P]ATP
# [19] = Antiproliferative activity against SRC, YES and FYN deficient mouse SYF cells at 3 to 100 nM; assay type: cell-based; conditions: 0.1 µM
# [20] = test system: MCF7; assay: Antiproliferative activity against human MCF7 cells assessed as reduction in cell confluence level at […] after 5 days by microscopy based time-lapse imaging assay; assay type: functional
# [21] = test system: MCF7; assay: Antiproliferative activity against human MCF7 cells assessed as cell death at […] after 48 to 120 hrs by microscopy based time-lapse imaging assay; assay type: functional
# [22] = test system: MCF7; assay: Induction of apoptosis in human MCF7 cells assessed as caspase 3/7 activity at >/= 100 nM after 5 days using phase contrast and fluorescent microscopy; assay type: functional, cell-based
# [23] = target: Cytochrome P450 2C19 (Homo sapiens, UniProt P33261); assay: Inhibition of CYP2C19 (unknown origin) at 10 uM; assay type: ADME
# [24] = target: Cytochrome P450 2D6 (Homo sapiens, UniProt P10635); assay: Inhibition of CYP2D6 (unknown origin) at 10 uM; assay type: ADME
# [25] = species on record: Danio rerio; assay: Effect on the development of the wild-type zebrafish embryos at 500 uM treated for 4 hrs measured at 48 hrs by fluorescent microscopy; assay type: ADME, organism-based; conditions: in vivo
# [26] = test system: Plasma; assay: Metabolic stability in rat plasma at 1 uM after 20 to 120 mins by LC-MS/MS analysis; assay type: ADME, cell-free
# [27] = test system: Plasma; assay: Metabolic stability in mouse plasma at 1 uM after 20 to 120 mins by LC-MS/MS analysis; assay type: ADME, cell-free
# [28] = target: T1, Proto-oncogene tyrosine-protein kinase Src
# [29] = target: Cytochrome P450 2C9 (Homo sapiens, UniProt P11712); assay: Inhibition of CYP2C9 (unknown origin) at 10 uM; assay type: ADME
# [30] = test system: Mus musculus; assay: In vivo inhibition of SRC phosphorylation at tyrosine 416 in human HCT116 cells xenografted in mouse at 50 mg/kg via oral gavage administered daily for 3 days measured 3 hrs post last dose by immunohistochemistry; assay type: functional, organism-based; conditions: HCT-116
# [31] = target: Focal adhesion kinase 1 (Mus musculus) (UniProt P34152); assay: Inhibition of FAK phosphorylation at tyrosine 861 in SRC, YES and FYN deficient mouse SYF cells at 3 to 100 nM preincubated for 1.5 hrs followed by serum stimulation for 1 hr by Western blot analysis; assay type: cell-based
# [32] = target: Cytochrome P450 3A4 (Homo sapiens, UniProt P08684); assay: Inhibition of CYP3A4 (unknown origin) at 10 uM; assay type: ADME
# [33] = test system: MDA-MB-231; assay: Cytotoxicity against human MDA-MB-231 cells assessed as reduction in cell viability at >10 nM after 24 hrs; assay type: cell-based; conditions: mda-mb-231, 24 h
# [34] = test system: MDA-MB-231; assay: Antimigratory activity in human MDA-MB-231 cells at >10 nM after 24 hrs by microscopy based scratch-wound cell migration assay; assay type: functional
# [35] = test system: Plasma; assay: Metabolic stability in human plasma at 1 uM after 20 to 120 mins by LC-MS/MS analysis; assay type: ADME, cell-free
# [36] = target: T2, Cytochrome P450 1A2 (Homo sapiens, UniProt P05177); assay: Inhibition of CYP1A2 (unknown origin) at 10 uM; assay type: ADME
# T2 sequence (P05177 whole entry): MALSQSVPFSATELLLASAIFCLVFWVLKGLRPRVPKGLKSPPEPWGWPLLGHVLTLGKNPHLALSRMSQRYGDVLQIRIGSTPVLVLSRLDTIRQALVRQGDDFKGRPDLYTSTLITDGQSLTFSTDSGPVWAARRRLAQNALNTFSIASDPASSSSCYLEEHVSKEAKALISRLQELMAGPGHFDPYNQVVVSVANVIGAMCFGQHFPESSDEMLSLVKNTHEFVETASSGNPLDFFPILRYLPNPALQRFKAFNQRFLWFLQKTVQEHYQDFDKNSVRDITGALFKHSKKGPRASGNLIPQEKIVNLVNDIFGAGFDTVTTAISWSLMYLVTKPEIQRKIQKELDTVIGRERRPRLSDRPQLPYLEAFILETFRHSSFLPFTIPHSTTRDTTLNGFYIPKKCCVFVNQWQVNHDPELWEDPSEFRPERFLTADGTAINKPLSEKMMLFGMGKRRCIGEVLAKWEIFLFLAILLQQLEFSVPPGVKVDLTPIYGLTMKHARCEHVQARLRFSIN
# Proto-oncogene tyrosine-protein kinase receptor Ret, sequence (P07949 whole entry): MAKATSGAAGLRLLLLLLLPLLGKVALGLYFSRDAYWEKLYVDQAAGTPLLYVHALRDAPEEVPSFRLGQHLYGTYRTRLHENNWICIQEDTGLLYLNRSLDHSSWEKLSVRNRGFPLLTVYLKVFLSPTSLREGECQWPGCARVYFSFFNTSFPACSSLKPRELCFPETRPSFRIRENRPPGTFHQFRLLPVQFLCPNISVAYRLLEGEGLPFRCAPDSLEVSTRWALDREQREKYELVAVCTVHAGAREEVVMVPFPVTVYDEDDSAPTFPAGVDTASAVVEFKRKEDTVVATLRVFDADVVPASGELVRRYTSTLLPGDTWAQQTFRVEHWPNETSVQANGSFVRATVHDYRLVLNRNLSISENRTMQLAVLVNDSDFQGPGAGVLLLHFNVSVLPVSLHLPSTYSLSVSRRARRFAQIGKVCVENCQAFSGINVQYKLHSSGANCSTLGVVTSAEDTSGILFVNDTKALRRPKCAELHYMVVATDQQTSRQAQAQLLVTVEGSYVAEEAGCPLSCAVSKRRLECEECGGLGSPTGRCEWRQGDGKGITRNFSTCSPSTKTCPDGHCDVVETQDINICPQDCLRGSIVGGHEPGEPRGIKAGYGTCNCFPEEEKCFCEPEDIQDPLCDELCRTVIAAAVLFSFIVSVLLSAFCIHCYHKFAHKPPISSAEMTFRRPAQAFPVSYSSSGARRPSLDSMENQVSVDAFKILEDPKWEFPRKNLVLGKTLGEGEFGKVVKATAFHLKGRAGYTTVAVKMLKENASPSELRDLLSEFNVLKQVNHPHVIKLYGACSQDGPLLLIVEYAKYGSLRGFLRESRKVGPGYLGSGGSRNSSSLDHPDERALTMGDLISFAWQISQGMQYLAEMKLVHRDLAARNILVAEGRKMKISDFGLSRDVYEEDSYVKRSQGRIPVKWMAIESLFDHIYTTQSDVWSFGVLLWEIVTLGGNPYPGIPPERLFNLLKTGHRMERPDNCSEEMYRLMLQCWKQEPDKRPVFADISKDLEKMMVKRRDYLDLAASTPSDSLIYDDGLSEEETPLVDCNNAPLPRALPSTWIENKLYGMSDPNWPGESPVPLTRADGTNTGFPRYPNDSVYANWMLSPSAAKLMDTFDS
# Platelet-derived growth factor receptor alpha, sequence (P16234 whole entry): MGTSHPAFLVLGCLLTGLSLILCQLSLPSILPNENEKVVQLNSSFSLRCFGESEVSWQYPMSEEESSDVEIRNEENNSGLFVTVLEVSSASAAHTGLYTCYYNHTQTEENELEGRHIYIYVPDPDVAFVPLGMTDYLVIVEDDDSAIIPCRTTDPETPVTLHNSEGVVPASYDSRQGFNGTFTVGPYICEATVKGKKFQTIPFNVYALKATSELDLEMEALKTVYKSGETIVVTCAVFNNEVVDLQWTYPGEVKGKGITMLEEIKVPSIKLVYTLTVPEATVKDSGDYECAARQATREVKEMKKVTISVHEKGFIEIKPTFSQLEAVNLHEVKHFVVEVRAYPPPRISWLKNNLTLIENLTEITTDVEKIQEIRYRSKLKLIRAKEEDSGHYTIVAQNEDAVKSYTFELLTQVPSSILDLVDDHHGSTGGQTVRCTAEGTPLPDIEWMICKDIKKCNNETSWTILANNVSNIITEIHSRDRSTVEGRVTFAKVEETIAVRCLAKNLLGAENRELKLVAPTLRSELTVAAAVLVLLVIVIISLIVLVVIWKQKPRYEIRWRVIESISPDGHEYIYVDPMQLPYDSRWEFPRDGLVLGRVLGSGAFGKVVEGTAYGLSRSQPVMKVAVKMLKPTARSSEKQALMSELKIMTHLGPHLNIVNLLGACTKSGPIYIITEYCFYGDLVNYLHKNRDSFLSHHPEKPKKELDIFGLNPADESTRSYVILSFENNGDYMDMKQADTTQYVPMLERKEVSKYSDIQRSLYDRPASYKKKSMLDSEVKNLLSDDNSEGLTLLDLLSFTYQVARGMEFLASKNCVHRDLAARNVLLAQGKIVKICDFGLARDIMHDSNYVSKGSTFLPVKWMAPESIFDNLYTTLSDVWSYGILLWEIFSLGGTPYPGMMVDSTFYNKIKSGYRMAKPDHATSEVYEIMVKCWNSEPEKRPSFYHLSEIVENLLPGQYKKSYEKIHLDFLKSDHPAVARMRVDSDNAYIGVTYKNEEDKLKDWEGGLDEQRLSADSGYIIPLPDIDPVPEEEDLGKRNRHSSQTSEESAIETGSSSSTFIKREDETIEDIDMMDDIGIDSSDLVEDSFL
# T1 sequence (P12931 2-536 limits assumed): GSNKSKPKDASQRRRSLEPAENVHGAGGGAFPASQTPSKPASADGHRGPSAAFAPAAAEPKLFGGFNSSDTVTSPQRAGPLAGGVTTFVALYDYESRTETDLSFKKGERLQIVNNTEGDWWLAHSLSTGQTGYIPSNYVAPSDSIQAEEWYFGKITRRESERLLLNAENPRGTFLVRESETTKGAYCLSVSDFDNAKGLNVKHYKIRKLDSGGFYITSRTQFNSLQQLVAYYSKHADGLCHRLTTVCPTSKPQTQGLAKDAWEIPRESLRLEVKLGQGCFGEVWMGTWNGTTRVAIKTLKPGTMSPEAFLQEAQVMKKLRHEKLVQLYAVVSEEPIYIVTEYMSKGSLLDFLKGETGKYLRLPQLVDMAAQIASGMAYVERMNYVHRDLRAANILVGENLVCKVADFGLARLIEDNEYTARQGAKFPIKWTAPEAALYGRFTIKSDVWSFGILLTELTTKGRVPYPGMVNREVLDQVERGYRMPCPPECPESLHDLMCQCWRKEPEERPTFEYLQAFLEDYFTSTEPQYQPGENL
# Mast/stem cell growth factor receptor Kit, sequence (P10721 whole entry): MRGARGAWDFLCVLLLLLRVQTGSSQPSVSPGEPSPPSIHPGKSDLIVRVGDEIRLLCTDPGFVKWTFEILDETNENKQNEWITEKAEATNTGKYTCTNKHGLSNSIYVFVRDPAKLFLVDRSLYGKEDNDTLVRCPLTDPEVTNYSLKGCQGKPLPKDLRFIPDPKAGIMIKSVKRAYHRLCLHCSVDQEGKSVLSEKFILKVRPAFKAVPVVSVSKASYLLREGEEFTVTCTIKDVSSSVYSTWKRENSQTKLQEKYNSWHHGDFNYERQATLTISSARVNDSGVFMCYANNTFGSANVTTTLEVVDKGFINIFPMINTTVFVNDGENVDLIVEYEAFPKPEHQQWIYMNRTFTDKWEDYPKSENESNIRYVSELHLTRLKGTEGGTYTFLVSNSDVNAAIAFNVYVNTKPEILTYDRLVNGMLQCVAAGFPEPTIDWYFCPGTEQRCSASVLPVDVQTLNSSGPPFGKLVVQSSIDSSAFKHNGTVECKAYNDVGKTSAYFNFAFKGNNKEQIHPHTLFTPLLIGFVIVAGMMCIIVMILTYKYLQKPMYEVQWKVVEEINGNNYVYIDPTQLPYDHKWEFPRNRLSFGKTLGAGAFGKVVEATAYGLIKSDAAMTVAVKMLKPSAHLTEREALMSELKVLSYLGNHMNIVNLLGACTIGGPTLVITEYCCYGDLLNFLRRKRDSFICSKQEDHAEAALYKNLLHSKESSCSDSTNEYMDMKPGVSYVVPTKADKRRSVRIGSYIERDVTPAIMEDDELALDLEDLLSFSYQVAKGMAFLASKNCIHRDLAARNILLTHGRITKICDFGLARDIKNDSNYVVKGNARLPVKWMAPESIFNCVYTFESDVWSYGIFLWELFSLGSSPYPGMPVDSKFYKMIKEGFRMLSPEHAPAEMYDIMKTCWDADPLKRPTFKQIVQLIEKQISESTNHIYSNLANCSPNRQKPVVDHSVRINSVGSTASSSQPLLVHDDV
# Tyrosine-protein kinase ABL1, sequence (P00519 whole entry): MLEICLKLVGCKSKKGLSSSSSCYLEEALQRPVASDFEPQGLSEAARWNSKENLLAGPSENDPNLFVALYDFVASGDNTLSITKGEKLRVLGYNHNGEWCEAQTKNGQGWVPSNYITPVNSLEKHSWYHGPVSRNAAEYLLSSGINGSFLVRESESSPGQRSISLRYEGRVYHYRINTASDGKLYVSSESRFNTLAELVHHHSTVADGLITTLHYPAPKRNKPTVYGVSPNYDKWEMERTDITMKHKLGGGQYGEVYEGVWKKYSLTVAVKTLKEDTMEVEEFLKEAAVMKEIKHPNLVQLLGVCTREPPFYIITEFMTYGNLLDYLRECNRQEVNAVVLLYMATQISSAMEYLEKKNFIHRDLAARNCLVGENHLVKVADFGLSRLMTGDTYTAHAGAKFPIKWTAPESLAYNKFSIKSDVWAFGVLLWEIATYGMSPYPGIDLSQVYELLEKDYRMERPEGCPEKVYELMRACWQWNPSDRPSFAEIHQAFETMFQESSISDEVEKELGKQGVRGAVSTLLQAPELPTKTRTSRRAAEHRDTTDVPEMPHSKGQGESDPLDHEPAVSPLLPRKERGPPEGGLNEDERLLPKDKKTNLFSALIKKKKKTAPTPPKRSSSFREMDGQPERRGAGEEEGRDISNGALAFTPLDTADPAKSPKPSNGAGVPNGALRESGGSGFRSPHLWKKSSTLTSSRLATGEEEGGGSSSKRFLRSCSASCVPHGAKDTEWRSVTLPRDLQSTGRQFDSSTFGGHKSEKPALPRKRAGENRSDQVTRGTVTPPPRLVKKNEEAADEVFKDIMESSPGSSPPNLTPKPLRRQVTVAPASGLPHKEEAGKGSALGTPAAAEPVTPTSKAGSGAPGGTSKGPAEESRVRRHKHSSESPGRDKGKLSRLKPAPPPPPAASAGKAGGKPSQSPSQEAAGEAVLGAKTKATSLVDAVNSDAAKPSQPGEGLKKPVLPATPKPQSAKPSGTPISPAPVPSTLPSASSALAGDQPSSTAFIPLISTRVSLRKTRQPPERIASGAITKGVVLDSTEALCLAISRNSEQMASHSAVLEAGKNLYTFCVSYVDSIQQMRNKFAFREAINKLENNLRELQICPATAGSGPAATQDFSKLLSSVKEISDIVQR
structure (smiles),measurement,setting,value
COc1cc(-c2nn(CCN3CCCC(N(C)C)C3)c3ncnc(N)c23)ccc1NC(=O)OC(C)(C)C (stereo not drawn),EC50,[1],1.99 µM
Cc1ccc(-c2nn(C(C)(C)C)c3ncnc(N)c23)cc1,IC50,[2],0.036 µM
same,IC50,[3],0.657 µM
CN(C)C1CCN(CCn2nc(-c3ccc(NC(=O)OC(C)(C)C)cc3)c3c(N)ncnc32)CC1,IC50,[4],0.071 µM
same,IC50,[5],> 10 µM
CCOC(Cn1nc(-c2cccc(O)c2)c2c(N)ncnc21)OCC,EC50,[6],7.6 µM
CN(C)CC1CCN(CCn2nc(-c3cccc(O)c3)c3c(N)ncnc32)CC1,EC50,[6],30.3 µM
Cc1nc(Nc2ncc(C(=O)Nc3c(C)cccc3Cl)s2)cc(N2CCN(CCO)CC2)n1.O [DASATINIB],Activity,[7],Toxic
same,Activity,[8],Toxic
same,solubility,[9],< 0.001 mg/mL
same,solubility,[10],18 mg/mL
same,Activity,[11],Dose-dependent effect
same,Activity,[12],Toxic
same,half-life,[13],54 min
COc1cc(-c2nn(CCN3CCC(N(C)C)CC3)c3ncnc(N)c23)ccc1NCc1cccnc1,EC50,[1],4.14 µM
CCOC(Cn1nc(-c2cnc3[nH]ccc3c2)c2c(N)ncnc21)OCC,IC50,[2],0.566 µM
same,IC50,[3],> 10 µM
same,IC50,[14],> 10 µM
same,IC50,[4],2.45 µM
same,Activity,[15],Active
same,IC50,[16],1.23 µM
same,IC50,[17],0.328 µM
same,IC50,[5],1.21 µM
same,IC50,[18],0.598 µM
COc1cc(-c2nn(CCN3CCC(CN(C)C)CC3)c3ncnc(N)c23)ccc1NC(=O)OC(C)(C)C,Activity,[19],Non-toxic
CCOC(Cn1nc(-c2ccoc2)c2c(N)ncnc21)OCC,EC50,[6],43.1 µM
CCOC(Cn1nc(-c2ccc(C)cc2)c2c(N)ncnc21)OCC,EC50,[6],30.9 µM
Cc1ccc(-c2nn(CCN3CCC(CCN(C)C)CC3)c3ncnc(N)c23)cc1,IC50,[3],> 10 µM
same,IC50,[14],> 10 µM
same,Activity,[20],Active
same,IC50,[17],> 10 µM
same,IC50,[18],> 10 µM
COc1ccc(-c2nn(CCN3CCC(CN(C)C)CC3)c3ncnc(N)c23)cc1OC,EC50,[6],18.3 µM
Cc1ccc(-c2nn(CCN3CCC(CN(C)C)CC3)c3ncnc(N)c23)cc1,IC50,[3],> 10 µM
same,IC50,[14],> 10 µM
same,Activity,[20],Active
same,IC50,[17],> 10 µM
same,IC50,[18],> 10 µM
CCOC(Cn1nc(-c2ccc3ncccc3c2)c2c(N)ncnc21)OCC,EC50,[6],263 µM
COc1cc(-c2nn(CCN3CCC(N(C)C)CC3)c3ncnc(N)c23)ccc1N,EC50,[1],6.72 µM
CN(C)C1CCN(CCn2nc(-c3ccc(NC(=O)OC(C)(C)C)c(O)c3)c3c(N)ncnc32)CC1,EC50,[1],9.71 µM
CN(C)CC1CCN(CCn2nc(-c3cnc4[nH]ccc4c3)c3c(N)ncnc32)CC1,Activity,[21],Active
same,IC50,[3],> 10 µM
same,IC50,[14],> 10 µM
same,IC50,[17],8.57 µM
CN(C)C1CCN(CCn2nc(-c3ccc4c(ccn4C(=O)OC(C)(C)C)c3)c3c(N)ncnc32)CC1,EC50,[1],4.15 µM
CCOC(Cn1nc(-c2ccc(OC)c(OC)c2)c2c(N)ncnc21)OCC,EC50,[6],6.1 µM
COc1cc(-c2nn(CCN3CCC(OC)CC3)c3ncnc(N)c23)ccc1NC(=O)OC(C)(C)C,EC50,[1],1.96 µM
Cc1ccc(-c2nn(CCN3CCC(N(C)C)CC3)c3ncnc(N)c23)cc1,IC50,[3],> 10 µM
same,IC50,[14],> 10 µM
same,Activity,[20],Active
same,IC50,[17],> 10 µM
same,IC50,[18],6.58 µM
COc1cc(-c2nn(CCN3CCC(N(C)C)CC3)c3ncnc(N)c23)ccc1NC(=O)OC(C)(C)C,Activity,[22],Active
same,inhibition (INH),[23],Not Active
same,inhibition (INH),[24],Not Active
same,Activity,[25],Non-toxic
same,Stability,[26],Stable
same,Stability,[27],Stable
same,TDI,[28],inactive
same,inhibition (INH),[29],Not Active
same,inhibition,[30],Active
same,IC50,[14],> 10 µM
same,inhibition,[31],inactive
same,inhibition (INH),[32],Not Active
same,Activity,[33],Toxic
same,Activity,[34],Active
same,Stability,[35],Stable
same,inhibition (INH),[36],Active
same,Activity,[19],Non-toxic
COc1cc(-c2nn(CCN3CCC(N(C)C)CC3)c3ncnc(N)c23)ccc1NCc1ccccn1,EC50,[1],40.2 µM
COc1ccc(-c2nn(CCN3CCC(N(C)C)CC3)c3ncnc(N)c23)cc1NC(=O)OC(C)(C)C,EC50,[1],28.6 µM
CN(C)C1CCN(CCn2nc(-c3cccc(NC(=O)OC(C)(C)C)c3)c3c(N)ncnc32)CC1,EC50,[1],26.8 µM
Cc1ccc(-c2nn(CCN3CCN(CCN(C)C)CC3)c3ncnc(N)c23)cc1,Activity,[20],Active
CN(C)C1CCN(CCn2nc(-c3ccc(NC(=O)OC(C)(C)C)nc3)c3c(N)ncnc32)CC1,EC50,[1],17.7 µM
CN(C)CC1CCN(CCn2nc(-c3ccoc3)c3c(N)ncnc32)CC1,EC50,[6],57.1 µM
COc1cc(-c2nn(CCN3CCC(N(C)C)CC3)c3ncnc(N)c23)ccc1CC(=O)N1CCCC1,EC50,[1],> 100 µM
COc1cc(-c2ccn(CCN3CCC(N(C)C)CC3)n2)ccc1NC(=O)OC(C)(C)C,EC50,[1],32.6 µM
CN(C)CC1CCN(CCn2nc(C#Cc3ccccc3)c3c(N)ncnc32)CC1,EC50,[6],13.5 µM
CN(C)CC1CCN(CCn2nc(-c3ccc4ncccc4c3)c3c(N)ncnc32)CC1,EC50,[6],93.6 µM
COc1cc(-c2nn(CCN3CCC(N(C)C)CC3)c3ncnc(N)c23)ccc1NC(=O)CCc1ccccc1,EC50,[1],12.2 µM
CCOC(Cn1nc(C#Cc2ccccc2)c2c(N)ncnc21)OCC,EC50,[6],5 µM
Cc1ccc(-c2nn(CCN3CCN(C)CC3)c3ncnc(N)c23)cc1,Activity,[20],Active
